# According to patent US10611730B2, “Benzimidazolone and benzothiazolone compounds and their use as AMPA receptor modulators” (Janssen Pharmaceutica NV, priority 2015, dated 2020):
# Biological target: TARP γ8 dependent AMPA receptor (GluA1o-g8 fusion channel) (Homo sapiens (Human), UniProt P42261+Q8WXS5)
# Assay: Calcium flux assay (FLIPR), HEK293 cells expressing GRIA1o-CACNG8 fusion
# Assay type: cell-based
# Conditions: inhibition of calcium flux after 15 μM glutamate
# Text: This assay was used to test compounds for their ability to inhibit TARP γ8 dependent AMPA receptor activity.
# An in vitro assay was used to determine the potency of test compounds as inhibitors of the glutamate response of the channel formed by GluA1o-g8. To ensure a 1:1 stoichiometry of GluA1o and g8 subunits in the expressed channel, a fusion of the cDNAs for GRIA1o and CACNG8 was used. […] A clonal cell line in HEK293 cells stably expressing this construct, with a geneticin selection marker, was generated for use in this assay. Cell expressing the GRIAlo-CACNG8 fusion construct were grown in a monolayer in 96- or 384-well microtiter plates. […] The cells were then loaded with a calcium-sensitive dye (Calcium-5 or Calcium-6, Molecular Devices) and the test compounds at a range of concentrations.
# The fluorescence in each well was normalized to the fluorescence of negative and positive control wells. […] The responses to glutamate as functions of the test compound concentrations were fitted to a four-parameter logistic function. The fitted parameter corresponding to the midpoint was taken to be the potency of inhibition of the compound.
# TARP γ8 dependent AMPA receptor (GluA1o-g8 fusion channel), sequence (P42261 other isoform, or with tags, fused parts or gaps): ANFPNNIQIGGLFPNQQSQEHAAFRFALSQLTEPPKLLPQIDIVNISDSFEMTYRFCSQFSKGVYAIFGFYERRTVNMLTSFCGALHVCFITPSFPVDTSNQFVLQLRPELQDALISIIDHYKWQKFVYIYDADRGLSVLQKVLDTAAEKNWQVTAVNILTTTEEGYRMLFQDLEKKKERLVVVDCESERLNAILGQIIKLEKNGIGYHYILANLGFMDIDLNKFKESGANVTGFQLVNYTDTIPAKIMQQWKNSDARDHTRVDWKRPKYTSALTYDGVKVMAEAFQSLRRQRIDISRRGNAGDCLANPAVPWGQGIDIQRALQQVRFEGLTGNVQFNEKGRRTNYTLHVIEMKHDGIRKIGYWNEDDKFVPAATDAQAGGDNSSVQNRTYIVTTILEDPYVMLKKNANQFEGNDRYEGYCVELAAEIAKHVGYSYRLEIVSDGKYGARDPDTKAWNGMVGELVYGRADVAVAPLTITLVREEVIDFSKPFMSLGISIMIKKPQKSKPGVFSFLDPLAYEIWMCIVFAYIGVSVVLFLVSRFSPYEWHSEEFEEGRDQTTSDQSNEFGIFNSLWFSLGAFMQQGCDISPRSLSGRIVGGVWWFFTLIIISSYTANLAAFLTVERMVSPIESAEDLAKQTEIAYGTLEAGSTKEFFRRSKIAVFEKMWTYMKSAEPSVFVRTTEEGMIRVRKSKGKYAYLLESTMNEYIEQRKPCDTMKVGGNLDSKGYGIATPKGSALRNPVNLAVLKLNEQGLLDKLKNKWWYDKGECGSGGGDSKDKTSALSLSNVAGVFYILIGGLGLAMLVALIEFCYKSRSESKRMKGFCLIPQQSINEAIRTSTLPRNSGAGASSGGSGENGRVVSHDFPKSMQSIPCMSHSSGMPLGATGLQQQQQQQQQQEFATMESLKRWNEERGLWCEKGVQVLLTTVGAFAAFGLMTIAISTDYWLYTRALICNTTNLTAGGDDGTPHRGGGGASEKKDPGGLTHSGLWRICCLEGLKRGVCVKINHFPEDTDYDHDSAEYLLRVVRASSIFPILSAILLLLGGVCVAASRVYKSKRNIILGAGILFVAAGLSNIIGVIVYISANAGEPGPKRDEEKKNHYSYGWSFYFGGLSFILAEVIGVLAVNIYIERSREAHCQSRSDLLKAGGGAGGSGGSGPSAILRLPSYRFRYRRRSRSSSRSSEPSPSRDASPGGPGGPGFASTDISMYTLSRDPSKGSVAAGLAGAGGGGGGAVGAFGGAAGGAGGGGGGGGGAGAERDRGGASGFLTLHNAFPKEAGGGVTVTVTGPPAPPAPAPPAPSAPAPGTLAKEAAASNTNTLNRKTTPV
row,SMILES,GluR1-γ8 pIC50
1,"O=c1[nH]c2ccc(-c3c(Cl)cccc3OC(F)(F)F)cc2s1 [Example 76, 6-[2-Chloro-6-(trifluoromethoxy)phenyl]-3H-1,3-benzothiazol-2-one]",8.6

# Same assay, conditions: inhibition of calcium flux after 15 μM glutamate, read-out: GluR1-γ8 pIC50 (converted)
row,SMILES,IC50
1,"O=c1[nH]c2ccc(-c3cccc(Cl)c3C(F)(F)F)cc2[nH]1 [Example 34, 5-[3-Chloro-2-(trifluoromethyl)phenyl]-1,3-dihydrobenzimidazol-2-one]",251 nM
2,"O=c1[nH]c2ccc(-c3ccccc3Br)cc2[nH]1 [Example 35, 5-(2-Bromophenyl)-1,3-dihydrobenzimidazol-2-one]",251 nM
3,"Cc1ccc(C#N)cc1-c1ccc2[nH]c(=O)[nH]c2c1 [Example 39, 4-Methyl-3-(2-oxo-1,3-dihydrobenzimidazol-5-yl)benzonitrile]",1580 nM
4,"N#Cc1ccc(Cl)c(-c2ccc3[nH]c(=O)[nH]c3c2)c1 [Example 40, 4-Chloro-3-(2-oxo-1,3-dihydrobenzimidazol-5-yl)benzonitrile]",1580 nM
5,"N#CCc1ccccc1-c1ccc2[nH]c(=O)[nH]c2c1 [Example 41, 2-[2-(2-Oxo-1,3-dihydrobenzimidazol-5-yl)phenyl]acetonitrile]",501 nM
6,"COC(=O)c1cccc(Cl)c1-c1ccc2[nH]c(=O)[nH]c2c1 [Example 42, Methyl 3-chloro-2-(2-oxo-1,3-dihydrobenzimidazol-5-yl)benzoate]",501 nM
7,"COC(=O)c1cccc(-c2ccc3[nH]c(=O)[nH]c3c2)c1Cl [Example 43, Methyl 2-chloro-3-(2-oxo-1,3-dihydrobenzimidazol-5-yl)benzoate]",31.6 nM
8,"COC(=O)c1ccc(Cl)c(-c2ccc3[nH]c(=O)[nH]c3c2)c1 [Example 44, Methyl 4-chloro-3-(2-oxo-1,3-dihydrobenzimidazol-5-yl)benzoate]",316 nM
9,"COC(=O)c1cccc(-c2ccc3[nH]c(=O)[nH]c3c2)c1C [Example 46, Methyl 2-methyl-3-(2-oxo-1,3-dihydrobenzimidazol-5-yl)benzoate]",50.1 nM
10,"COC(=O)c1ccc(C)c(-c2ccc3[nH]c(=O)[nH]c3c2)c1 [Example 47, Methyl 4-methyl-3-(2-oxo-1,3-dihydrobenzimidazol-5-yl)benzoate]",501 nM
11,"COC(=O)c1cccc(-c2ccc3[nH]c(=O)[nH]c3c2)c1OC [Example 48, Methyl 2-methoxy-3-(2-oxo-1,3-dihydrobenzimidazol-5-yl)benzoate]",6310 nM
12,"Cc1cccc(C(F)(F)F)c1-c1ccc2[nH]c(=O)[nH]c2c1 [Example 57, 5-[2-Methyl-6-(trifluoromethyl)phenyl]-1,3-dihydrobenzimidazol-2-one]",631 nM
13,"O=c1[nH]c2ccc(-c3cccc4cccnc34)cc2[nH]1 [Example 58, 5-(8-Quinolyl)-1,3-dihydrobenzimidazol-2-one]",3160 nM
14,"O=c1[nH]c2ccc(-c3ccccc3Cc3ccccc3)cc2[nH]1 [Example 59, 5-(2-Benzylphenyl)-1,3-dihydrobenzimidazol-2-one]",316 nM
15,"Cc1c(-c2ccc3[nH]c(=O)[nH]c3c2)cccc1C(F)(F)F [Example 60, 5-[2-Methyl-3-(trifluoromethyl)phenyl]-1,3-dihydrobenzimidazol-2-one]",79.4 nM
16,"O=c1[nH]c2ccc(-c3cccc(C(F)(F)F)c3Cl)cc2[nH]1 [Example 61, 5-[2-Chloro-3-(trifluoromethyl)phenyl]-1,3-dihydrobenzimidazol-2-one]",39.8 nM

row,SMILES,IC50
1,"CC(C)Oc1cccc(-c2ccc3[nH]c(=O)[nH]c3c2)c1C#N [Example 62, 2-Isopropoxy-6-(2-oxo-1,3-dihydrobenzimidazol-5-yl)benzonitrile]",200 nM
2,"N#Cc1c(Br)cccc1-c1ccc2[nH]c(=O)[nH]c2c1 [Example 63, 2-Bromo-6-(2-oxo-1,3-dihydrobenzimidazol-5-yl)benzonitrile]",631 nM
3,"N#Cc1c(-c2ccc3[nH]c(=O)[nH]c3c2)cccc1C(F)(F)F [Example 65, 2-(2-Oxo-1,3-dihydrobenzimidazol-5-yl)-6-(trifluoromethyl)benzonitrile]",1260 nM
4,"Cc1c(C#N)cccc1-c1ccc2[nH]c(=O)[nH]c2c1 [Example 67, 2-Methyl-3-(2-oxo-1,3-dihydrobenzimidazol-5-yl)benzonitrile]",251 nM
5,"N#Cc1cccc(-c2ccc3[nH]c(=O)[nH]c3c2)c1Cl [Example 68, 2-Chloro-3-(2-oxo-1,3-dihydrobenzimidazol-5-yl)benzonitrile]",316 nM
6,"Cc1nc(-c2cccc(-c3ccc4[nH]c(=O)[nH]c4c3)c2C)no1 [Example 71, 5-[2-Methyl-3-(5-methyl-1,2,4-oxadiazol-3-yl)phenyl]-1,3-dihydrobenzimidazol-2-one]",50.1 nM
7,"Cc1nc(-c2cccc(-c3ccc4[nH]c(=O)sc4c3)c2C)no1 [Example 72, 6-[2-Methyl-3-(5-methyl-1,2,4-oxadiazol-3-yl)phenyl]-3H-1,3-benzothiazol-2-one]",794 nM
8,"Cc1c(-c2ccc3[nH]c(=O)[nH]c3c2)cccc1-c1noc(C2CC2)n1 [Example 73, 5-[3-(5-Cyclopropyl-1,2,4-oxadiazol-3-yl)-2-methyl-phenyl]-1,3-dihydrobenzimidazol-2-one]",31.6 nM
9,"Cc1c(-c2ccc3[nH]c(=O)sc3c2)cccc1-c1noc(C2CC2)n1 [Example 74, 6-[3-(5-Cyclopropyl-1,2,4-oxadiazol-3-yl)-2-methyl-phenyl]-3H-1,3-benzothiazol-2-one]",3980 nM
10,"Cc1c(-c2ccc3[nH]c(=O)[nH]c3c2)cccc1-c1noc(-c2ccncc2)n1 [Example 75, 5-[2-Methyl-3-[5-(4-pyridyl)-1,2,4-oxadiazol-3-yl]phenyl]-1,3-dihydrobenzimidazol-2-one]",20 nM
11,"COc1cccc(OC(C)C)c1-c1ccc2[nH]c(=O)sc2c1 [Example 77, 6-(2-Isopropoxy-6-methoxy-phenyl)-3H-1,3-benzothiazol-2-one]",12.6 nM
12,"CNC(=O)Cc1c(-c2ccc3[nH]c(=O)[nH]c3c2)cccc1C(F)(F)F [Example 78, N-Methyl-2-[2-(2-oxo-1,3-dihydrobenzimidazol-5-yl)-6-(trifluoromethyl)phenyl] acetamide]",200 nM
13,"Cc1c(C(=O)Nc2ccccc2)cccc1-c1ccc2[nH]c(=O)[nH]c2c1 [Example 79, 2-Methyl-3-(2-oxo-1,3-dihydrobenzimidazol-5-yl)-N-phenyl-benzamide]",794 nM
14,"Cc1c(C(=O)NC2CC2)cccc1-c1ccc2[nH]c(=O)[nH]c2c1 [Example 80, N-Cyclopropyl-2-methyl-3-(2-oxo-1,3-dihydrobenzimidazol-5-yl)benzamide]",3980 nM
15,"Cc1c(C(=O)N(C)C)cccc1-c1ccc2[nH]c(=O)[nH]c2c1 [Example 81, N,N,2-Trimethyl-3-(2-oxo-1,3-dihydrobenzimidazol-5-yl)benzamide]",3160 nM

# Continued, values first:
row,IC50,SMILES
1,794 nM,"Cc1cc(Cl)cc(C)c1-c1ccc2[nH]c(=O)[nH]c2c1 [Example 37, 5-(4-Chloro-2,6-dimethyl-phenyl)-1,3-dihydrobenzimidazol-2-one]"
2,501 nM,"Cc1cccc(C#N)c1-c1ccc2[nH]c(=O)[nH]c2c1 [Example 38, 3-Methyl-2-(2-oxo-1,3-dihydrobenzimidazol-5-yl)benzonitrile]"
3,251 nM,"COC(=O)c1cccc(C)c1-c1ccc2[nH]c(=O)[nH]c2c1 [Example 45, Methyl 3-methyl-2-(2-oxo-1,3-dihydrobenzimidazol-5-yl)benzoate]"
4,63.1 nM,"O=c1[nH]c2ccc(-c3c(Cl)cccc3Cl)cc2[nH]1 [Example 49, 5-(2,6-Dichlorophenyl)-1,3-dihydrobenzimidazol-2-one]"
5,158 nM,"O=c1[nH]c2ccc(-c3c(Cl)cc(F)cc3Cl)cc2[nH]1 [Example 50, 5-(2,6-Dichloro-4-fluoro-phenyl)-1,3-dihydrobenzimidazol-2-one]"
6,501 nM,"O=c1[nH]c2ccc(-c3c(Cl)cc(Cl)cc3Cl)cc2[nH]1 [Example 51, 5-(2,4,6-Trichlorophenyl)-1,3-dihydrobenzimidazol-2-one]"
7,1000 nM,"O=c1[nH]c2ccc(-c3c(F)cccc3F)cc2[nH]1 [Example 52, 5-(2,6-Difluorophenyl)-1,3-dihydrobenzimidazol-2-one]"
8,251 nM,"O=c1[nH]c2ccc(-c3c(F)cccc3Cl)cc2[nH]1 [Example 53, 5-(2-Chloro-6-fluoro-phenyl)-1,3-dihydrobenzimidazol-2-one]"
9,251 nM,"Cc1cccc(F)c1-c1ccc2[nH]c(=O)[nH]c2c1 [Example 54, 5-(2-Fluoro-6-methyl-phenyl)-1,3-dihydrobenzimidazol-2-one]"
10,794 nM,COc1cccc(C)c1-c1ccc2[nH]c(=O)[nH]c2c1 [Example 55]
11,631 nM,"N#Cc1cccc(Cl)c1-c1ccc2[nH]c(=O)[nH]c2c1 [Example 56, 3-Chloro-2-(2-oxo-1,3-dihydrobenzimidazol-5-yl)benzonitrile]"
12,100 nM,"Cc1cccc(-c2ccc3[nH]c(=O)[nH]c3c2)c1Cl [Example 64, 5-(2-Chloro-3-methyl-phenyl)-1,3-dihydrobenzimidazol-2-one]"
13,501 nM,"O=c1[nH]c2ccc(-c3c(Cl)cncc3Cl)cc2[nH]1 [Example 69, 5-(3,5-Dichloro-4-pyridyl)-1,3-dihydrobenzimidazol-2-one]"
14,794 nM,"Cc1ccnc(Cl)c1-c1ccc2[nH]c(=O)[nH]c2c1 [Example 70, 5-(2-Chloro-4-methyl-3-pyridyl)-1,3-dihydrobenzimidazol-2-one]"
